Laboratory results published in publication PMC9994261 (Cell, 2023).
Values after ≈ are worked out from the molar mass of the structure shown. Where two headings read alike, the source gives them in different places.

What was measured:
Mtb H37Rv [1] = experiment: Combination study in mouse model of TB; format: in vivo; conditions: mouse, in vivo
Mtb H37Rv [2] = experiment: MIC80 after overnight pre-incubation of Mtb with subinhibitory macrolide; format: cell-based; conditions: Mycobacterium tuberculosis
Mtb methylated ribosome = experiment: Mtb in vitro translation assay with methylated (erythromycin-treated) ribosome; format: biochemical, Mycobacterium tuberculosis
Mtb ribosome = format: biochemical, Mycobacterium tuberculosis
M. bovis BCG Pasteur = experiment: microbe, parasite or virus in culture; format: cell-based, Mycobacterium bovis
Mtb H37Rv [3] = experiment: microbe, parasite or virus in culture; format: cell-based, Mycobacterium tuberculosis; conditions: Mycobacterium tuberculosis, H37RV; read-out: MIC for Mtb in liquid culture
[4] = format: in vitro ADME, human; conditions: for Metabolic stability in human liver microsomes (% metabolized compound after 20 min): 20 min incubation; for Metabolic stability in human liver microsomes (% metabolized compound after 20 min), (K): in presence of ketoconazole CYP3A inhibitor (K); for Metabolic stability in human liver microsomes (% metabolized compound after 20 min), (Q): in presence of quinidine CYP2D6 inhibitor (Q)
Description: The metabolic stability of test compounds was determined as described.[57]^,[58] Incubation and experimental conditions with human hepatic microsomal fractions (purchased from BD Gentest as a pooled batch from 6 donors) were as follows: microsomal proteins, 1 mg/mL; bovine serum albumin, 1 mg/mL; substrate, 5 μM; incubation duration, 20 min; cytochrome P-450 monooxygenases (CYPs) and flavin containing monooxygenases (FMOs) cofactor, 1 mM NADPH. Enzyme activity was stopped with 1 volume of acetonitrile. […] For each test compound and for each microsomal preparation, three incubations were prepared: absolute reference in buffer (without enzyme material, i.e., microsomes); incubation without NADPH cofactor (with microsomal fractions); and incubation with NADPH (with microsomal fractions). For most compounds, biotransformation, as observed in hepatic microsomal fractions in the presence of the NADPH cofactor, consists of oxidative reactions catalyzed by either CYPs or FMOs. In these conditions, the percentage of total metabolism, which corresponds to oxidative metabolism, was determined as follows: [% total metabolism] ≈ [% oxidative metabolism] = [unchanged compound (UC) peak area − NADPH UC peak area + NADPH] × 100%, where NADPH corresponds to the enzyme cofactor for oxidation reactions catalyzed by either CYP or FMO.

[5] = test system: GFP-expressing Mtb H37Rv in RAW264.7 macrophages; experiment: Intramacrophage assay (MIC for Mtb in macrophages); format: cell-based, Mycobacterium tuberculosis; conditions: Mycobacterium tuberculosis, H37RV; read-out: MIC for Mtb tuberculosis in macrophages
physchem [6] = format: physicochemical
in vivo = conditions: male, Swiss, mouse, po; for AUC: 30 mg/kg, oral 30 mg/kg
in vitro = in vitro ADME; conditions: human, Caco-2; read-out: Permeability in Caco2 cells (Papp)
CYP3A4 = molecular target: T1, CYP3A4 (Homo sapiens, UniProt P08684); experiment: CYP3A4 reversible inhibition in human liver microsomes; format: in vitro ADME
T1 construct: human liver microsomes (purchased from BD Gentest as a pooled batch from 150 donors); tissue BD Gentest Cat#452117; host or cells: pooled human liver microsomes (150 donors)
T1 sequence (P08684 whole entry): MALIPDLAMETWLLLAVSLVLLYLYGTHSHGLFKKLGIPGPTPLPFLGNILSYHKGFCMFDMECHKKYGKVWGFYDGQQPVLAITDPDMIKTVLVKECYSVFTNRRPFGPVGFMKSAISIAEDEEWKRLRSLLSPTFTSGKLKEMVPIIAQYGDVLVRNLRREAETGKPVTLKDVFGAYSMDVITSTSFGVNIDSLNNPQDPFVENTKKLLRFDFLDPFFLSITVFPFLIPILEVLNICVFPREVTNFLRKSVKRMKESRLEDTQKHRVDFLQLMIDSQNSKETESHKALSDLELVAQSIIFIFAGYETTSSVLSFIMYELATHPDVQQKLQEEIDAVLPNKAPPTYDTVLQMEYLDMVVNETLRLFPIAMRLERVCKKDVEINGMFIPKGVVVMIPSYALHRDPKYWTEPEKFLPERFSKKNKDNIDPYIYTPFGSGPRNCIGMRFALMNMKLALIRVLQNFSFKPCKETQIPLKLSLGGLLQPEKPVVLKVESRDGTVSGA
Description: Incubations were performed with 0.1 mg/mL human liver microsomes (purchased from BD Gentest as a pooled batch from 150 donors) in a final incubation volume of 0.25 mL. The incubation medium contained 0.05 M phosphate buffer (pH 7.4) containing an NADPH regenerating system (including 1.3 mM NADP, 3.3 mM glucose 6-phosphate,3.3 mM MgCl2, and 1.0 U/mL glucose 6-phosphate dehydrogenase). Probe CYP3A4 substrates (midazolam at 3 μM and testosterone at 50 μM), were incubated for 10 and 30 min, respectively, with increasing concentrations of GM, MGM or CGM (concentration range: 1 - 30 μM). The reaction was stopped by adding acetonitrile to precipitate the proteins. The incubation mixtures were then centrifuged for 5 min at 10,000 × g, and an aliquot of the supernatant was analyzed using high-performance liquid chromatography coupled to mass spectrometry for the assessment of 1’-hydroxymidazolam and 6β-hydroxytestosterone metabolite formation.

[7] = format: in vitro ADME
physchem [8] = conditions: pH 7.4
[9] = format: in vitro ADME; remark: listed apart in the source
[10] = format: in vitro ADME; remark: listed apart in the source
[11] = pH 2, 50% acetonitrile/water
[12] = methylated ribosome, read-out: IC50 methylated ribosome
[13] = non-methylated ribosome, read-out: IC50 ribosome
[14] = read-out: Inhibition of Mtb translation (IC50 μM)
[15] = read-out: Translation inhibition of Mtb methylated ribosome (IC50 μM)
[16] = aqueous buffer, PBS pH 7.4, read-out: Solubility: PBS@pH 7.4

## CC(=O)NC[C@H]1CN(c2ccc(N3CCOCC3)c(F)c2)C(=O)O1 [Linezolid]
Mtb H37Rv [1]
  Mean ± SD lung CFU counts, Week 4: 6.86 ± 0.08
Mtb H37Rv [2]
  MIC80: 1 µM (≈ 0.337 µg/mL)

## CC[C@H]1OC(=O)[C@H](C)[C@@H](O[C@H]2C[C@@](C)(OC)[C@@H](O)[C@H](C)O2)[C@H](C)[C@@H](O[C@@H]2O[C@H](C)C[C@H](N(C)C)[C@H]2O)[C@](C)(O)C[C@@H](C)CN(C)[C@H](C)[C@@H](O)[C@]1(C)O [Azithromycin, reference compound]
Mtb methylated ribosome; [12]
  IC50: > 100 µM
Mtb ribosome; [13]
  IC50: 2.91 µM

## NNC(=O)c1ccncc1 [Isoniazid, reference compound]
M. bovis BCG Pasteur
  Growth inhibition (MIC80): 0.40 µM
M. bovis BCG Pasteur; Mycobacterium tuberculosis variant bovis BCG, BCG, read-out: Growth inhibition (MIC80)
  MIC80: 0.34 µM (≈ 0.0466 µg/mL)

## COc1nc2ccc(Br)cc2cc1[C@@H](c1ccccc1)[C@@](O)(CCN(C)C)c1cccc2ccccc12 [BDQ, Bedaquiline]
Mtb H37Rv [1]
  Mean ± SD lung CFU counts, Week 4: 2.96 ± 0.19

## CC[C@H]1OC(=O)C[C@@H](O)[C@H](C)[C@@H](O[C@@H]2O[C@H](C)[C@@H](O[C@H]3C[C@@](C)(O)[C@@H](O)[C@H](C)O3)[C@H](N(C)C)[C@H]2O)[C@@H](CC=O)C[C@@H](C)C(=O)/C=C/C(C)=C/[C@@H]1CO[C@@H]1O[C@H](C)[C@@H](O)[C@@H](OC)[C@H]1OC [Tylosin, reference compound]
Mtb methylated ribosome; [12]
  IC50: 0.377 µM
Mtb ribosome; [13]
  IC50: 0.0892 µM

## CC[C@H]1OC(=O)[C@H](C)[C@@H](O[C@H]2C[C@@](C)(OC)[C@@H](O)[C@H](C)O2)[C@H](C)[C@@H](O[C@@H]2O[C@H](C)C[C@H](N(C)C)[C@H]2O)[C@](C)(O)C[C@@H](C)/C(=N\OCOCCOC)[C@H](C)[C@@H](O)[C@]1(C)O [roxithromycin, reference compound]
Mtb H37Rv [3]
  MIC: 32 µM (≈ 26.8 µg/mL)

## CON=C1C[C@@H](C)O[C@@H](O[C@@H]2[C@@H](C)[C@H](O[C@H]3C[C@@](C)(O)[C@@H](O)[C@H](C)O3)[C@@H](C)C(=O)O[C@H](C(C)CO[C@@H]3O[C@H](C)[C@@H](O)[C@@H](OC)[C@H]3OC)[C@H](C)[C@@H](OC(=O)CC(C)C)[C@@H](C)C(=O)[C@@](C)(OC(=O)NCCn3c([N+](=O)[O-])cnc3C)C[C@@H]2C)[C@@H]1O (some centres unmarked) [SEQ-569]
Mtb H37Rv [3]
  MIC: 0.57 µM (≈ 0.677 µg/mL)
Mtb ribosome; [14]
  IC50: 0.054 µM

## NC(=O)c1cnccn1 [Z, Pyrazinamide]
Mtb H37Rv [1]
  Mean ± SD lung CFU counts, Week 4: 5.99 ± 0.19

## O=[N+]([O-])c1cn2c(n1)OC[C@@H](OCc1ccc(OC(F)(F)F)cc1)C2 [Pa, Pretomanid]
Mtb H37Rv [1]
  Mean ± SD lung CFU counts, Week 4: 5.83 ± 0.12

## CCC[C@@H]1C[C@@H](C(=O)N[C@@H]([C@H]2O[C@H](SC)[C@H](O)[C@@H](O)[C@H]2O)[C@H](C)Cl)N(C)C1 [Clindamycin, reference compound]
Mtb methylated ribosome; [12]
  IC50: 42.3 µM
Mtb ribosome; [13]
  IC50: 0.08 µM

## CO/N=C1\C[C@@H](C)O[C@@H](O[C@@H]2[C@@H](C)[C@H](O[C@H]3C[C@@](C)(O)[C@@H](O)[C@H](C)O3)[C@@H](C)C(=O)O[C@H]([C@@H](C)CO[C@@H]3O[C@H](C)[C@@H](O)[C@@H](OC)[C@H]3OC)[C@H](C)[C@@H](OC(=O)CC(C)C)[C@@H](C)C(=O)[C@@](C)(OC(=O)NCCNS(=O)(=O)c3ccccc3[N+](=O)[O-])C[C@@H]2C)[C@@H]1O [SEQ-977]
Mtb H37Rv [3]
  MIC: 0.13 µM (≈ 0.164 µg/mL)
Mtb ribosome; [14]
  IC50: 0.034 µM

## COC1C(OCC(C)C2OC(=O)C(C)C(OC3CC(C)(O)C(O)C(C)O3)C(C)C(OC3OC(C)CC(=O)C3O)C(C)CC(C)(O)C(=O)C(C)C(OC(=O)CC(C)C)C2C)OC(C)C(O)C1OC [SEQ-503, (3S,4S,5R,7S,9S,10S,11R,12S,13R)-12-[(4,5-dihydroxy-4,6-dimethyltetrahydro-2H-pyran2-yl)oxy]-7-hydroxy-2-{1-[(5-hydroxy-3,4-dimethoxy-6-methyltetrahydro-2H-pyran-2-yl)oxy]propan-2-yl}-10-[(3-hydroxy-6-methyl-4-oxotetrahydro-2H-pyran-2-yl)oxy]-3,5,7,9,11,13-hexamethyl-6,14-dioxooxacyclotetradecan-4-yl) 3-methylbutanoate]
Mtb methylated ribosome; [15]
  IC50: 0.022 µM
[4]
  Metabolic stability in human liver microsomes (% metabolized compound after 20 min): 67%
  Metabolic stability in human liver microsomes (% metabolized compound after 20 min), (K): 4(K) %
  Metabolic stability in human liver microsomes (% metabolized compound after 20 min), (Q): /41(Q) %
Mtb H37Rv [3]
  MIC: 1.4 µM (≈ 1.35 µg/mL)
[5]
  MIC: 2.5 µM (≈ 2.41 µg/mL)
Physchem [6]; [16]
  solubility: 522 µg/mL (≈ 542 µM)
In vivo
  bioavailability: 22%
In vitro
  Papp: 0.07 ×10⁻⁶ cm/s
CYP3A4; substrate not stated, read-out: CYP3A4 inhibition
  IC50: > 10000 nM
[7]
  Metabolic stability in mouse liver microsomes (% metabolized compound after 20 min): 0/ND %
Mtb ribosome; [14]
  IC50: 0.021 µM

## CO/N=C1\C[C@@H](C)O[C@@H](O[C@@H]2[C@@H](C)[C@H](O[C@H]3C[C@@](C)(O)[C@@H](O)[C@H](C)O3)[C@@H](C)C(=O)O[C@H]([C@@H](C)CO[C@@H]3O[C@H](C)[C@@H](O)[C@@H](OC)[C@H]3OC)[C@H](C)[C@@H](OC(=O)CC(C)C)[C@@H](C)C(=O)[C@@](C)(OC(=O)NCc3ccccc3)C[C@@H]2C)[C@@H]1O [SEQ-416, [(2R,3S,4R,5R,7S,9S,10S,11R,12S,13R)-7-(benzylcarbamoyloxy)-12-[(2R,4R,5S,6S)-4,5-dihydroxy-4,6-dimethyl-tetrahydropyran-2-yl]oxy-2-[(1S)-2-[(2R,3R,4R,5R,6R)-5-hydroxy-3,4-dimethoxy-6-methyl-tetrahydropyran-2-yl]oxy-1-methyl-ethyl]-10-[(2S,3R,4E,6R)-3-hydroxy-4-methoxyimino-6-methyl-tetrahydropyran-2-yl]oxy-3,5,7,9,11,13-hexamethyl-6,14-dioxo-oxacyclotetradec-4-yl] 3-methylbutanoate]
Mtb methylated ribosome; [15]
  IC50: 0.031 µM
[4]
  Metabolic stability in human liver microsomes (% metabolized compound after 20 min): 40%
  Metabolic stability in human liver microsomes (% metabolized compound after 20 min), (K): 0.5(K) %
  Metabolic stability in human liver microsomes (% metabolized compound after 20 min), (Q): /35(Q) %
Physchem [8]
  logD: 4.5
[9]
  Metabolic degradation/clearance from human liver microsomes: 0.057 mL/h/10^6 hepatocytes
[10]
  Metabolic stability in rat liver microsomes (% metabolized compound after 20 min): 22%
Mtb H37Rv [3]
  MIC: 0.15 µM (≈ 0.169 µg/mL)
[5]
  MIC: 0.63 µM (≈ 0.709 µg/mL)
Physchem [6]; MCT pH 7.4, read-out: Solubility: MCT@pH 7.4
  solubility: 599 µg/mL (≈ 532 µM)
Physchem [6]; [16]
  solubility: 22 µg/mL (≈ 19.5 µM)
In vivo
  bioavailability: 21%
In vivo; AUC in lung @30 mg/kg, lung
  AUC: 4800 ng·h/mL
In vivo; AUC in plasma @30 mg/kg, plasma
  AUC: 4000 ng·h/mL
In vitro
  Papp: 10.4 ×10⁻⁶ cm/s
CYP3A4; midazolam, read-out: CYP3A4 inhibition, IC50 with midazolam as substrate
  IC50: 3000 nM
CYP3A4; testosterone, read-out: CYP3A4 inhibition, IC50 with testosterone as substrate (T)
  IC50: 10000 nM
[7]
  Metabolic stability in mouse liver microsomes (% metabolized compound after 20 min): 25%
Mtb ribosome; [14]
  IC50: 0.044 µM
[11]
  Chemical stability: t/12@pH 2: ∼6 h

## CC[C@H]1OC(=O)[C@H](C)[C@@H](O[C@H]2C[C@@](C)(OC)[C@@H](O)[C@H](C)O2)[C@H](C)[C@@H](O[C@@H]2O[C@H](C)C[C@H](N(C)C)[C@H]2O)[C@](C)(O)C[C@@H](C)C(=O)[C@H](C)[C@@H](O)[C@]1(C)O [Erythromycin, reference compound]
Mtb methylated ribosome; [12]
  IC50: 140 µM
Mtb H37Rv [3]
  MIC: 128 µM (≈ 93.9 µg/mL)
Mtb ribosome; [13]
  IC50: 0.671 µM
